What was measured:
[1] = tested on: Mus musculus; test: Toxicity in SCID mouse xenografted with human MIAPaCa2 cells assessed as body weight loss at 100 mg/kg/day, po measured on day 26 to day 44; type: organism-based, MIA PaCa-2; design: route oral; settings: in vivo
[2] = tested on: MIA PaCa-2; test: Antitumor activity against human MIAPaCa2 cells xenografted in SCID mouse assessed as tumor growth inhibition at 100 mg/kg/day, po measured on day 35 relative to vehicle-treated control; type: functional; settings: MIA PaCa-2, 840 h, read-out: TGI
[3] = Cmax in mouse at 50 mg/kg, po measured at 1 hr; type: ADME, organism-based; design: dose 50 mg/kg, route oral; settings: in vivo
[4] = Half life in mouse, iv; type: ADME, organism-based; settings: in vivo
[5] = biological target: Mitogen-activated protein kinase 13 (Homo sapiens, UniProt O15264); test: Inhibition of recombinant P38delta after 1 hr by scintillation counter analysis in presence of gamma-[33P]ATP
Chain of Mitogen-activated protein kinase 13 (O15264 whole entry): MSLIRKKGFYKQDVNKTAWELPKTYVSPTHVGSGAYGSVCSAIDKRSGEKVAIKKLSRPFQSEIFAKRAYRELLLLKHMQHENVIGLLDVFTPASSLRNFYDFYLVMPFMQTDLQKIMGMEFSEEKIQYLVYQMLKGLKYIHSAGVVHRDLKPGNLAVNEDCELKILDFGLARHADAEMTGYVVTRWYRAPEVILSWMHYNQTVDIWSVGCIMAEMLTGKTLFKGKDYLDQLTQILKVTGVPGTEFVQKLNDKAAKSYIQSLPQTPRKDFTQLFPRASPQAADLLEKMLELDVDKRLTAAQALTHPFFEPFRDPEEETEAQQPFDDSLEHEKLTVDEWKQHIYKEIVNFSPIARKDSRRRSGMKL

[6] = biological target: BDNF/NT-3 growth factors receptor (Homo sapiens, UniProt Q16620); test: Inhibition of recombinant TRKB after 1 hr by scintillation counter analysis in presence of gamma-[33P]ATP
[7] = biological target: Non-receptor tyrosine-protein kinase TYK2 (Homo sapiens, UniProt P29597); test: Inhibition of recombinant TYK2 after 1 hr by scintillation counter analysis in presence of gamma-[33P]ATP
[8] = biological target: Rho-associated protein kinase 1 (Homo sapiens, UniProt Q13464); test: Inhibition of recombinant ROCK1 after 1 hr by scintillation counter analysis in presence of gamma-[33P]ATP
[9] = biological target: Serine/threonine-protein kinase pim-2 (Homo sapiens, UniProt Q9P1W9); test: Inhibition of recombinant PIM2 after 1 hr by scintillation counter analysis in presence of gamma-[33P]ATP
Chain of Serine/threonine-protein kinase pim-2 (Q9P1W9 whole entry): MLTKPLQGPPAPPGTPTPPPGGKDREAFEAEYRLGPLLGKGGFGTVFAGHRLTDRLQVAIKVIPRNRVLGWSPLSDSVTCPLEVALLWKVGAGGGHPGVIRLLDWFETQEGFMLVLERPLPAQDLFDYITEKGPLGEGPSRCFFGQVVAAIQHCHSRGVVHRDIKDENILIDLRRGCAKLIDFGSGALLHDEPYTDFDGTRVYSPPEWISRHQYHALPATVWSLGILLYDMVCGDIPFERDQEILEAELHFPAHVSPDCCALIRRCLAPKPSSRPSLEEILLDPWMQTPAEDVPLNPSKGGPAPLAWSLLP

[10] = biological target: Serine/threonine-protein kinase pim-1 (Homo sapiens, UniProt P11309); test: Inhibition of recombinant PIM1 after 1 hr by scintillation counter analysis in presence of gamma-[33P]ATP
Chain of Serine/threonine-protein kinase pim-1 (P11309 whole entry): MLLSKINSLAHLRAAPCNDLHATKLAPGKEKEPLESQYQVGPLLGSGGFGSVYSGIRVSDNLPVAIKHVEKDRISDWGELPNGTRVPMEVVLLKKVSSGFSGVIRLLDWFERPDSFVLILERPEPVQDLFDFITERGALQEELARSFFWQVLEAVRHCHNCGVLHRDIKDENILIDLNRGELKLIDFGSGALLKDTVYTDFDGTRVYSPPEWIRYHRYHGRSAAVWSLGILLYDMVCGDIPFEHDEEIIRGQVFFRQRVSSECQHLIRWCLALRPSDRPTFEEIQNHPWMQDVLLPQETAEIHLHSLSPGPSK

[11] = biological target: MAP kinase-activated protein kinase 3 (Homo sapiens, UniProt Q16644); test: Inhibition of recombinant MK3 after 1 hr by scintillation counter analysis in presence of gamma-[33P]ATP
[12] = biological target: LIM domain kinase 1 (Homo sapiens, UniProt P53667); test: Inhibition of recombinant LIMK1 after 1 hr by scintillation counter analysis in presence of gamma-[33P]ATP
Chain of LIM domain kinase 1 (P53667 whole entry, the tested form may be a part): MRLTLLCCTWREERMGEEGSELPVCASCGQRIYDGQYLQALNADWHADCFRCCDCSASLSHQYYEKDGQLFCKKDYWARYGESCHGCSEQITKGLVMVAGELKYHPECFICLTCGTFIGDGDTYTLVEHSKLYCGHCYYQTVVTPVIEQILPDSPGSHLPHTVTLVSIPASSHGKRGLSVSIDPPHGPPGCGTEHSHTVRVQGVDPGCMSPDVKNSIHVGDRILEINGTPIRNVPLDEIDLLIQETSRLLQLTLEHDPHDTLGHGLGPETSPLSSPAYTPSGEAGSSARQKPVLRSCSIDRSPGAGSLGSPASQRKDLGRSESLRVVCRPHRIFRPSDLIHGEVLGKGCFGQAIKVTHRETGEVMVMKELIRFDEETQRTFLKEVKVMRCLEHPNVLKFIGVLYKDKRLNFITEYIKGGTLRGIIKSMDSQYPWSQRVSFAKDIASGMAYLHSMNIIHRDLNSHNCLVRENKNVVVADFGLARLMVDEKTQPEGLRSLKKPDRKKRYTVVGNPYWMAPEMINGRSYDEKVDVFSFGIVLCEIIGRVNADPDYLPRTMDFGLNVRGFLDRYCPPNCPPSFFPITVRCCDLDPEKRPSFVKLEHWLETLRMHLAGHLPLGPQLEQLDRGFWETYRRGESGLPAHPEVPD

[13] = biological target: Mitogen-activated protein kinase 9 (Homo sapiens, UniProt P45984); test: Inhibition of recombinant JNK2A2 after 1 hr by scintillation counter analysis in presence of gamma-[33P]ATP
Chain of Mitogen-activated protein kinase 9 (P45984 whole entry): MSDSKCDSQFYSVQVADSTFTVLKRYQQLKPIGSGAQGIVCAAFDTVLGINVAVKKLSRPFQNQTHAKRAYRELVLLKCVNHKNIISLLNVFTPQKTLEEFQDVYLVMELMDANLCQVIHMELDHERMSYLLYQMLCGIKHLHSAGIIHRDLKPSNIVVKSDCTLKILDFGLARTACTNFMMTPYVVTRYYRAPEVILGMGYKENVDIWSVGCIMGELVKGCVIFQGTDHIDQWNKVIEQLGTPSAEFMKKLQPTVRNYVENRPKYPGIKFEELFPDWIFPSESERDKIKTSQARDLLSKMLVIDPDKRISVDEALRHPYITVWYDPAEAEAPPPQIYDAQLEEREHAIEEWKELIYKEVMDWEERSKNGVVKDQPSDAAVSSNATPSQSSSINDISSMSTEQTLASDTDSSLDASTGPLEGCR

[14] = biological target: Insulin-like growth factor 1 receptor (Homo sapiens, UniProt P08069); test: Inhibition of recombinant IGF1R after 1 hr by scintillation counter analysis in presence of gamma-[33P]ATP
[15] = biological target: Glycogen synthase kinase-3 beta (Homo sapiens, UniProt P49841); test: Inhibition of recombinant GSK3B after 1 hr by scintillation counter analysis in presence of gamma-[33P]ATP
[16] = biological target: Glycogen synthase kinase-3 alpha (Homo sapiens, UniProt P49840); test: Inhibition of recombinant GSK3A after 1 hr by scintillation counter analysis in presence of gamma-[33P]ATP
[17] = biological target: Tyrosine-protein kinase Fyn (Homo sapiens, UniProt P06241); test: Inhibition of recombinant FYN after 1 hr by scintillation counter analysis in presence of gamma-[33P]ATP
[18] = biological target: Receptor-type tyrosine-protein kinase FLT3 (Homo sapiens, UniProt P36888); test: Inhibition of recombinant FLT3 after 1 hr by scintillation counter analysis in presence of gamma-[33P]ATP
[19] = biological target: Mitogen-activated protein kinase 1 (Homo sapiens, UniProt P28482); test: Inhibition of recombinant ERK2 after 1 hr by scintillation counter analysis in presence of gamma-[33P]ATP
[20] = biological target: Ephrin type-A receptor 2 (Homo sapiens, UniProt P29317); test: Inhibition of recombinant EPHA2 after 1 hr by scintillation counter analysis in presence of gamma-[33P]ATP
[21] = biological target: Dual specificity tyrosine-phosphorylation-regulated kinase 1A (Homo sapiens, UniProt Q13627); test: Inhibition of recombinant DYRK1A after 1 hr by scintillation counter analysis in presence of gamma-[33P]ATP
[22] = biological target: Calcium/calmodulin-dependent protein kinase type IV (Homo sapiens, UniProt Q16566); test: Inhibition of recombinant CAMK4 after 1 hr by scintillation counter analysis in presence of gamma-[33P]ATP
[23] = biological target: Serine/threonine-protein kinase Chk2 (Homo sapiens, UniProt O96017); test: Inhibition of recombinant CHK2 after 1 hr by scintillation counter analysis in presence of gamma-[33P]ATP
Chain of Serine/threonine-protein kinase Chk2 (O96017 whole entry): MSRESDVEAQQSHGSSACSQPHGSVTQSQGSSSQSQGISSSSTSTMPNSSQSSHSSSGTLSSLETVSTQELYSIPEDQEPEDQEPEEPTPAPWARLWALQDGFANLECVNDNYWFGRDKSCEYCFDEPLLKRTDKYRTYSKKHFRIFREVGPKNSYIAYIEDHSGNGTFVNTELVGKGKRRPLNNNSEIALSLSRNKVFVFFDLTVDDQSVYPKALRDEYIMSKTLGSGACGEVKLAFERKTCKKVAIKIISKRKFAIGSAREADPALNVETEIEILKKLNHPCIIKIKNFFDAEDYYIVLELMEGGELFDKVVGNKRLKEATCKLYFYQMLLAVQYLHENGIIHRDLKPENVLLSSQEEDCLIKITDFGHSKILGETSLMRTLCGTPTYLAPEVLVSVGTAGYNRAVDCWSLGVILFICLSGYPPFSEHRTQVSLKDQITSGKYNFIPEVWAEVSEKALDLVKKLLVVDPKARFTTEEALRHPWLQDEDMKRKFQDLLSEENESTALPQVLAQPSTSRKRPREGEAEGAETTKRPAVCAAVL

[24] = biological target: Tyrosine-protein kinase Blk (Homo sapiens, UniProt P51451); test: Inhibition of recombinant BLK after 1 hr by scintillation counter analysis in presence of gamma-[33P]ATP
Chain of Tyrosine-protein kinase Blk (P51451 whole entry): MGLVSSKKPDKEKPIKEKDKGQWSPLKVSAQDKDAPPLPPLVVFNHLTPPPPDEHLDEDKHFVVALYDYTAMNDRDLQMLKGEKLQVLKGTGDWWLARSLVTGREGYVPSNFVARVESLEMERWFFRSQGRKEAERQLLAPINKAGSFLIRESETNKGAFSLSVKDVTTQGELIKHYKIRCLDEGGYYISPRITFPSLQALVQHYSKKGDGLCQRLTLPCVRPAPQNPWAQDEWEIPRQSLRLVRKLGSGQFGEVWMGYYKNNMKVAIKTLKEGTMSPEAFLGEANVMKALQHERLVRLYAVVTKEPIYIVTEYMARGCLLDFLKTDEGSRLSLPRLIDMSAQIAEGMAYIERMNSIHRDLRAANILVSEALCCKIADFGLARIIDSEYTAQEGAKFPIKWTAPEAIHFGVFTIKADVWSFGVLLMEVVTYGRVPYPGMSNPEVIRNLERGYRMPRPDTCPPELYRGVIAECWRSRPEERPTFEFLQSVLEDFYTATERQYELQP

[25] = biological target: RAC-gamma serine/threonine-protein kinase (Homo sapiens, UniProt Q9Y243); test: Inhibition of recombinant AKT3 after 1 hr by scintillation counter analysis in presence of gamma-[33P]ATP
[26] = biological target: Serine/threonine-protein kinase PLK4 (Homo sapiens, UniProt O00444); test: Inhibition of recombinant PLK4 after 1 hr by scintillation counter analysis in presence of gamma-[33P]ATP
Chain of Serine/threonine-protein kinase PLK4 (O00444 whole entry): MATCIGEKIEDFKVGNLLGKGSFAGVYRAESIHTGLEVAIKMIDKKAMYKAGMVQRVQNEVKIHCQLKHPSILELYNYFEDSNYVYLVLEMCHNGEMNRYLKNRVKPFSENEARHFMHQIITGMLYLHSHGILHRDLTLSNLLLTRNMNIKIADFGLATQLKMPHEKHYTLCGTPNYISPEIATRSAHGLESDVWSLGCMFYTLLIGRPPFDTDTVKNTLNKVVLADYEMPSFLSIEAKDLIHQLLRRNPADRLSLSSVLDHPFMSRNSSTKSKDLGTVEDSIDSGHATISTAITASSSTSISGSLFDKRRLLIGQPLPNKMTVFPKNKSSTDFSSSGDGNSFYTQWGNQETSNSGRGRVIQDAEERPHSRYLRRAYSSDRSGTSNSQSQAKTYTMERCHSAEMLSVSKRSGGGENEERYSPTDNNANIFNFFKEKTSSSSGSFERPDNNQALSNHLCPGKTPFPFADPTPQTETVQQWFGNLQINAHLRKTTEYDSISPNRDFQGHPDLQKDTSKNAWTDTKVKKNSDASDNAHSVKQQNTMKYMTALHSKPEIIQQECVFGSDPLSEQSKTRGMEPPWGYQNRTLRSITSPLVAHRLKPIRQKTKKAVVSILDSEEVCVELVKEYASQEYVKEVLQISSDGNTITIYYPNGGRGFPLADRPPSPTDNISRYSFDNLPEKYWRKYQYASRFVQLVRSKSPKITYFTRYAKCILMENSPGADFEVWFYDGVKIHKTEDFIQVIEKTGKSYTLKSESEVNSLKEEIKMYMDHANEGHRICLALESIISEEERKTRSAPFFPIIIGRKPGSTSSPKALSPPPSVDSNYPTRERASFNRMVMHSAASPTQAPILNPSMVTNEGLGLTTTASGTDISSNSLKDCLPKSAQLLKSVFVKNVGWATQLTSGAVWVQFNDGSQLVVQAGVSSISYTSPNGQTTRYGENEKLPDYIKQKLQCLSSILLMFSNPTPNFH

[27] = biological target: Cell division control protein 42 homolog (Homo sapiens, UniProt P60953); test: Inhibition of recombinant CDC42 after 1 hr by scintillation counter analysis in presence of gamma-[33P]ATP
Chain of Cell division control protein 42 homolog (P60953 whole entry): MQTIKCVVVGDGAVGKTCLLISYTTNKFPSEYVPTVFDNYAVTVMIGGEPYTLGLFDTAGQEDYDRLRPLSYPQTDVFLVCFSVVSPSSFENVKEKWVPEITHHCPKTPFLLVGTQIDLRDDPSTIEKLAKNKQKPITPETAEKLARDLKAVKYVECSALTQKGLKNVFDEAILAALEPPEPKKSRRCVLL

[28] = biological target: Serine/threonine-protein kinase PLK2 (Homo sapiens, UniProt Q9NYY3); test: Inhibition of recombinant PLK2 after 1 hr by scintillation counter analysis in presence of gamma-[33P]ATP
Chain of Serine/threonine-protein kinase PLK2 (Q9NYY3 whole entry): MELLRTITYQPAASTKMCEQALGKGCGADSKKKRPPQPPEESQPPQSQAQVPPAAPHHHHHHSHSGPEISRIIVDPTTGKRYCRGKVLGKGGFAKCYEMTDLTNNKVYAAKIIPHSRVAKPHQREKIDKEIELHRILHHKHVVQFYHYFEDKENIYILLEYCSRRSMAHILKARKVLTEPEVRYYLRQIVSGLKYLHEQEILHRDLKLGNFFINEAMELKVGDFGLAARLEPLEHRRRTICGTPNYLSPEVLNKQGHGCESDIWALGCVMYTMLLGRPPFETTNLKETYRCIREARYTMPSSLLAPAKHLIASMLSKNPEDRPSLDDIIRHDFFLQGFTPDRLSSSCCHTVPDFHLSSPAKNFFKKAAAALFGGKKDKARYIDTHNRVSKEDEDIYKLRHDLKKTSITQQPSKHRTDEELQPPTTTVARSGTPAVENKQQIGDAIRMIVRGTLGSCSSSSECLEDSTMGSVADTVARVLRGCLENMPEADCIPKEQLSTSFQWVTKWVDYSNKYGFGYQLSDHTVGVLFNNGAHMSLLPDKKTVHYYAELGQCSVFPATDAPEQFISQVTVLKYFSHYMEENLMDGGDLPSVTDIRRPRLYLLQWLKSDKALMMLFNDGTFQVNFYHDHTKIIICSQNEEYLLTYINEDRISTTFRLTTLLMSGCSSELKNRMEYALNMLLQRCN

SMILES: CC(C)(C)Nc1c(Nc2ccnc(Nc3ccc(-c4ccncc4)cc3)n2)c(=O)c1=O
- Activity [1]: Non-toxic
- inhibition in vivo at 100 mg/kg/day [2]: 38%
- Cmax [3]: 5.4 µM
- half-life [4]: 20.4 min
- Ki [5]: 5900 nM
- Ki [6]: > 4500 nM
- Ki [7]: > 1900 nM
- Ki [8]: 220 nM
- Ki [9]: > 1400 nM
- Ki [10]: 1600 nM
- Ki [11]: > 9200 nM
- Ki [12]: 194 nM
- Ki [13]: 262 nM
- Ki [14]: > 1800 nM
- Ki [15]: 102 nM
- Ki [16]: 21 nM
- Ki [17]: 328 nM
- Ki [18]: 494 nM
- Ki [19]: 7200 nM
- Ki [20]: > 2800 nM
- Ki [21]: > 6800 nM
- Ki [22]: > 8500 nM
- Ki [23]: 88 nM
- Ki [24]: > 1400 nM
- Ki [25]: > 9000 nM
- Ki [26]: 7 nM
- Ki [27]: > 4400 nM
- Ki [28]: 2 nM

From ChEMBL document CHEMBL2203238, “Hit to Lead optimization of a novel class of squarate-containing polo-like kinases inhibitors” (Bioorg Med Chem Lett, 2012)
